In patent US12357607B2, “Compositions and methods for intravenous administration of 2-bromo-1-(3,3-dinitroazetidin-1-yl)ethanone” (EpicentRx, Inc., priority 2016, dated 2025):

Assay: Phase 1 dose-escalation study: intravenous aqueous solution of ABDNAZ; safety, tolerability, adverse events
Format: in vivo, human
Protocol: An aqueous solution of ABDNAZ was intravenously administered to twenty-five human patients as part of a Phase I clinical study. The aqueous solution contained ABDNAZ (2 mg/mL), polyethylene glycol having a number average molecular weight of 400 g/mol (6% w/w), dimethylacetamide (3% w/w), and water for injection. Patients were administered a volume of the aqueous solution of ABDNAZ sufficient to deliver a dose of ABDNAZ in the amount of 10 mg/m^2, 16.7 mg/m^2, 24.6 mg/m^2, 33 mg/m^2, 55 mg/m^2, or 83 mg/m^2. Pain at the injection site due to administration of the aqueous solution of ABDNAZ was experienced by 84% of patients. […] Thereafter, peripheral intravenous delivery in the antecubital or forearm area was used and a longer duration of time was used to perform the infusion (e.g., ranging from 2 hours to 8 hours, while administering at a rate of 3.5 mL/hour that could be adjusted up or down in 0.5 mL/hour increments based on patients' ability to tolerate the infusion).
In this open-label, human, dose-escalation phase 1 study, a 3+3 dose-escalation design was used to assess safety, tolerability, and pharmacokinetics of ABDNAZ. Patients were enrolled from the University of California-San Diego Moores Cancer Center, La Jolla, CA, USA, and the Sarah Cannon Research Institute, Nashville, TN, USA. […] Previous antineoplastic therapies had to have been discontinued at least 6 weeks before intervention start, and patients could show no residual side-effects of previous therapies. Patients were required to practice effective contraception while receiving ABDNAZ. All patients had evaluable disease. Key exclusion criteria included hypoalbuminaemia (albumin <30 g/L), active brain metastases (although patients with stable brain metastases were eligible), pregnancy or breast feeding, any other clinically significant illness or psychiatric disorder that could affect compliance or endpoint assessments, and concurrent use of any other investigational drugs.
Screening assessments were done at the clinical site less than 16 days before treatment initiation and included an electrocardiogram, urinalysis, Modified Borg Dyspnea Assessment, pulse oximetry, and radiographic tumour measurement. A medical history, physical examination, pregnancy test, performance status, complete blood count, a comprehensive serum chemistry, and urinalysis were done within 16 days of the first dosing.
The protocol was reviewed and approved by the investigational review boards at the Moores Cancer Center and the Sarah Cannon Research Institute. All procedures were performed in accordance with the principles established by the Helsinki Declaration. Patients gave written informed consent for all clinical and research aspects of the study before enrolment, which was done according to national and institutional guidelines.
An aqueous solution of ABDNAZ was intravenously administered to patients. The aqueous solution contained ABDNAZ (2 mg/mL), polyethylene glycol having a number average molecular weight of 400 g/mol (6% w/w), dimethylacetamide (3% w/w), and water for injection. Patients were administered a volume of the aqueous solution of ABDNAZ sufficient to deliver a dose of ABDNAZ in the amount of 10 mg/m^2, 16.7 mg/m^2, 24.6 mg/m^2, 33 mg/m^2, 55 mg/m^2, or 83 mg/m^2. Three patients were given a starting dose of 10 mg/m^2 of ABDNAZ before dose escalation (to 16.7 mg/m^2, 24.6 mg/m^2, 33 mg/m^2, 55 mg/m and 83 mg/m^2), with at least three patients per dose cohort, allowing a 2-week observation period before dose escalation. […] Thereafter, peripheral intravenous delivery in the antecubital or forearm area was used and a longer duration of time was used to perform the infusion (e.g., ranging from 2 hours to 8 hours, while administering at a rate of 3.5 mL/hour that could be adjusted up or down in 0.5 mL/hour increments based on patients' ability to tolerate the infusion). […]

[1] = 10 mg/m^2 dose (n = 6), number of patients
[2] = 16.7 mg/m^2 dose (n = 3), number of patients
[3] = 24.6 mg/m^2 dose (n = 3), number of patients
[4] = 33 mg/m^2 dose (n = 4), number of patients
[5] = 55 mg/m^2 dose (n = 3), number of patients
[6] = 83 mg/m^2 dose (n = 6), number of patients
[7] = twenty-five patients, all dose cohorts
[8] = twenty-five patients, all dose cohorts 10-83 mg/m^2

Structure (SMILES): O=C(CBr)N1CC([N+](=O)[O-])([N+](=O)[O-])C1 [ABDNAZ, 2-bromo-1-(3,3-dinitroazetidin-1-yl)ethanone]
- Dyspnoea or wheezing, Grade 1-2, share of patients (10 mg/m^2 dose (n = 6)): (17%)
- Infusion-site pain, Grade 1-2, share of patients (10 mg/m^2 dose (n = 6)): (67%)
- Arm swelling or oedema, Grade 1-2 [1]: 0
- Arm swelling or oedema, Grade 3 [1]: 0
- Dyspnoea or wheezing, Grade 1-2 [1]: 1
- Dyspnoea or wheezing, Grade 3 [1]: 0
- Infusion-site pain, Grade 1-2 [1]: 4
- Infusion-site pain, Grade 3 [1]: 0
- Mouth tingling or burning, Grade 1-2 [1]: 0
- Mouth tingling or burning, Grade 3 [1]: 0
- Vein hardening, Grade 1-2 [1]: 0
- Vein hardening, Grade 3 [1]: 0
- Arm swelling or oedema, Grade 1-2, share of patients (16.7 mg/m^2 dose (n = 3)): (33%)
- Infusion-site pain, Grade 1-2, share of patients (16.7 mg/m^2 dose (n = 3)): (100%)
- Arm swelling or oedema, Grade 1-2 [2]: 1
- Arm swelling or oedema, Grade 3 [2]: 0
- Dyspnoea or wheezing, Grade 1-2 [2]: 0
- Dyspnoea or wheezing, Grade 3 [2]: 0
- Infusion-site pain, Grade 1-2 [2]: 3
- Infusion-site pain, Grade 3 [2]: 0
- Mouth tingling or burning, Grade 1-2 [2]: 0
- Mouth tingling or burning, Grade 3 [2]: 0
- Vein hardening, Grade 1-2 [2]: 0
- Vein hardening, Grade 3 [2]: 0
- Infusion-site pain, Grade 1-2, share of patients (24.6 mg/m^2 dose (n = 3)): (33%)
- Arm swelling or oedema, Grade 1-2 [3]: 0
- Arm swelling or oedema, Grade 3 [3]: 0
- Dyspnoea or wheezing, Grade 1-2 [3]: 0
- Dyspnoea or wheezing, Grade 3 [3]: 0
- Infusion-site pain, Grade 1-2 [3]: 1
- Infusion-site pain, Grade 3 [3]: 0
- Mouth tingling or burning, Grade 1-2 [3]: 0
- Mouth tingling or burning, Grade 3 [3]: 0
- Vein hardening, Grade 1-2 [3]: 0
- Vein hardening, Grade 3 [3]: 0
- Arm swelling or oedema, Grade 2, share of patients (33 mg/m^2 dose (n = 4)): (25%)
- Infusion-site pain, Grade 2, share of patients (33 mg/m^2 dose (n = 4)): (75%)
- Infusion-site pain, Grade 3, share of patients (33 mg/m^2 dose (n = 4)): (25%)
- Vein hardening, Grade 2, share of patients (33 mg/m^2 dose (n = 4)): (25%)
- Arm swelling or oedema, Grade 2 [4]: 1
- Arm swelling or oedema, Grade 3 [4]: 0
- Dyspnoea or wheezing, Grade 2 [4]: 0
- Dyspnoea or wheezing, Grade 3 [4]: 0
- Infusion-site pain, Grade 2 [4]: 3
- Infusion-site pain, Grade 3 [4]: 1
- Mouth tingling or burning, Grade 2 [4]: 0
- Mouth tingling or burning, Grade 3 [4]: 0
- Vein hardening, Grade 2 [4]: 1
- Vein hardening, Grade 3 [4]: 0
- Arm swelling or oedema, Grade 1-2, share of patients (55 mg/m^2 dose (n = 3)): (67%)
- Dyspnoea or wheezing, Grade 1-2, share of patients (55 mg/m^2 dose (n = 3)): (33%)
- Infusion-site pain, Grade 1-2, share of patients (55 mg/m^2 dose (n = 3)): (100%)
- Mouth tingling or burning, Grade 1-2, share of patients (55 mg/m^2 dose (n = 3)): (67%)
- Vein hardening, Grade 1-2, share of patients (55 mg/m^2 dose (n = 3)): (33%)
- Arm swelling or oedema, Grade 1-2 [5]: 2
- Arm swelling or oedema, Grade 3 [5]: 0
- Dyspnoea or wheezing, Grade 1-2 [5]: 1
- Dyspnoea or wheezing, Grade 3 [5]: 0
- Infusion-site pain, Grade 1-2 [5]: 3
- Infusion-site pain, Grade 3 [5]: 0
- Mouth tingling or burning, Grade 1-2 [5]: 2
- Mouth tingling or burning, Grade 3 [5]: 0
- Vein hardening, Grade 1-2 [5]: 1
- Vein hardening, Grade 3 [5]: 0
- Arm swelling or oedema, Grade 1-2, share of patients (83 mg/m^2 dose (n = 6)): (67%)
- Dyspnoea or wheezing, Grade 1-2, share of patients (83 mg/m^2 dose (n = 6)): (50%)
- Infusion-site pain, Grade 1-2, share of patients (83 mg/m^2 dose (n = 6)): (100%)
- Mouth tingling or burning, Grade 1-2, share of patients (83 mg/m^2 dose (n = 6)): (33%)
- Vein hardening, Grade 1-2, share of patients (83 mg/m^2 dose (n = 6)): (83%)
- Arm swelling or oedema, Grade 1-2 [6]: 4
- Arm swelling or oedema, Grade 3 [6]: 0
- Dyspnoea or wheezing, Grade 1-2 [6]: 3
- Dyspnoea or wheezing, Grade 3 [6]: 0
- Infusion-site pain, Grade 1-2 [6]: 6
- Infusion-site pain, Grade 3 [6]: 0
- Mouth tingling or burning, Grade 1-2 [6]: 2
- Mouth tingling or burning, Grade 3 [6]: 0
- Vein hardening, Grade 1-2 [6]: 5
- Vein hardening, Grade 3 [6]: 0
- Pain at the injection site, grade (all dose cohorts 10-83 mg/m^2): mostly grade 1 and grade 2
- Patients needing dose reduction to 33 mg/m^2 because of localized infusion pain (highest dose cohort (83 mg/m^2)): Three
- Maximally feasible dose (limited by time constraints related to management of infusion pain): 83 mg/m^2
- Patients needing dose reduction to 33 mg/m^2 because of localized infusion pain (penultimate dose cohort (55 mg/m^2)): one
- Arm swelling or oedema, number of patients [7]: eight
- Arm swelling or oedema, share of patients [7]: 32%
- Vein hardening, number of patients [7]: seven
- Vein hardening, share of patients [7]: 28%
- Pain at the injection site, number of patients [8]: 21 patients
- Pain at the injection site, share of patients [8]: 84%
